Reference: ChEMBL document CHEMBL5465560, “Selectivity Literature for EUbOPEN Chemogenomic Library” (2024)

Experiments:
[1] = target: Mitogen-activated protein kinase kinase kinase kinase 1 (Homo sapiens) (UniProt Q92918); assay: Selectivity interaction (KinomeScan (DiscoverX)) EUB0001049a MAP4K1; conditions: at 1 µM
[2] = target: T1, Histone-arginine methyltransferase CARM1 (Homo sapiens) (UniProt Q86X55); conditions: MM1.S, at 3 µM
T1 sequence (whole entry): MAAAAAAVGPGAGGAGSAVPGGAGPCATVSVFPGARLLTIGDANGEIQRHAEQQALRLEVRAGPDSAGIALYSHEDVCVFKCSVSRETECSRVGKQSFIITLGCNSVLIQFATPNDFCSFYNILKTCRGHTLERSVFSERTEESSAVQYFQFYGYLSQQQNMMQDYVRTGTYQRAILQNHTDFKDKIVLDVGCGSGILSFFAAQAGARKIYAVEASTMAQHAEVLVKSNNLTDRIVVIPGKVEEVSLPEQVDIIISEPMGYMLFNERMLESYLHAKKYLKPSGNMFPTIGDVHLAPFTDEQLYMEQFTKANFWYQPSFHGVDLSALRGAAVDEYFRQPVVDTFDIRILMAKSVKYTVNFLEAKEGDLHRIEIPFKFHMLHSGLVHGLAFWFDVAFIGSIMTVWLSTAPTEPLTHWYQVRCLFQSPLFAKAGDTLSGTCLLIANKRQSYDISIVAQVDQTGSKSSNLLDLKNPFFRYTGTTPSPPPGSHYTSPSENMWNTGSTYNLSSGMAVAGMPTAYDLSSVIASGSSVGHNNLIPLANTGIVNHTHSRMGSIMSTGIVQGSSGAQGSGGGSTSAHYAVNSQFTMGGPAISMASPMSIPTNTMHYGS

[3] = target: Histone acetyltransferase p300 (Homo sapiens) (UniProt Q09472); assay: Selectivity interaction (Bromodomain panel (DSF asssay)) EUB0000270b EP300
[4] = target: WD repeat-containing protein 48 (Homo sapiens) (UniProt Q8TAF3); assay: Selectivity interaction (PWWP, WD40, and Tudor domain panel (DSLS measurements, literature)) EUB0000270b WDR48
[5] = target: Proto-oncogene tyrosine-protein kinase Src (Homo sapiens, UniProt P12931); assay: Selectivity interaction (Ambit KINOMEscan and KiNATiv profiling in Jurkat cells) EUB0000090b SRC; format: cell-based; conditions: at 1 µM
[6] = target: T2, Inhibitor of nuclear factor kappa-B kinase subunit epsilon (Homo sapiens) (UniProt Q14164); conditions: at 10 µM
T2 sequence (whole entry): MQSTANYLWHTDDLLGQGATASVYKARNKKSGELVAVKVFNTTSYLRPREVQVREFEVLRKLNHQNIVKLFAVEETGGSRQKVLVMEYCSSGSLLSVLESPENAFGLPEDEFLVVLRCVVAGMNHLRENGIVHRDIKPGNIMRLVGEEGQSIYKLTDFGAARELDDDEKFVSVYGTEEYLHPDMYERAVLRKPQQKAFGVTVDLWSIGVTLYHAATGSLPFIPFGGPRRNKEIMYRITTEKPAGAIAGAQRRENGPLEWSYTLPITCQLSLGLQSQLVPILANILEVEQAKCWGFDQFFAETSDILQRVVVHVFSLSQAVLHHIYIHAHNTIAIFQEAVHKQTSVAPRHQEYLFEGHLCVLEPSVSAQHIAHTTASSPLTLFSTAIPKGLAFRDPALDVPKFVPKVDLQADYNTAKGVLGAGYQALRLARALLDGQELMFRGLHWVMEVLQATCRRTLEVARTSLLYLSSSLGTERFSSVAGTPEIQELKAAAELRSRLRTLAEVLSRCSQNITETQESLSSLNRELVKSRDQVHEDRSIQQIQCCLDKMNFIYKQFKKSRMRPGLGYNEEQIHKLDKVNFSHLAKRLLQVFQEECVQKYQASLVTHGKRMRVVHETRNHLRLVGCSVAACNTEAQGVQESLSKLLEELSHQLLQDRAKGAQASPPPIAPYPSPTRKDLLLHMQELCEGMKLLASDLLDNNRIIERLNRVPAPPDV

[7] = target: T3, Mitogen-activated protein kinase kinase kinase kinase 3 (Homo sapiens) (UniProt Q8IVH8); assay: Selectivity interaction (LanthaScreen Eu Kinase Binding Assay) EUB0001632a MAP4K3; conditions: at 10 µM
T3 sequence (whole entry): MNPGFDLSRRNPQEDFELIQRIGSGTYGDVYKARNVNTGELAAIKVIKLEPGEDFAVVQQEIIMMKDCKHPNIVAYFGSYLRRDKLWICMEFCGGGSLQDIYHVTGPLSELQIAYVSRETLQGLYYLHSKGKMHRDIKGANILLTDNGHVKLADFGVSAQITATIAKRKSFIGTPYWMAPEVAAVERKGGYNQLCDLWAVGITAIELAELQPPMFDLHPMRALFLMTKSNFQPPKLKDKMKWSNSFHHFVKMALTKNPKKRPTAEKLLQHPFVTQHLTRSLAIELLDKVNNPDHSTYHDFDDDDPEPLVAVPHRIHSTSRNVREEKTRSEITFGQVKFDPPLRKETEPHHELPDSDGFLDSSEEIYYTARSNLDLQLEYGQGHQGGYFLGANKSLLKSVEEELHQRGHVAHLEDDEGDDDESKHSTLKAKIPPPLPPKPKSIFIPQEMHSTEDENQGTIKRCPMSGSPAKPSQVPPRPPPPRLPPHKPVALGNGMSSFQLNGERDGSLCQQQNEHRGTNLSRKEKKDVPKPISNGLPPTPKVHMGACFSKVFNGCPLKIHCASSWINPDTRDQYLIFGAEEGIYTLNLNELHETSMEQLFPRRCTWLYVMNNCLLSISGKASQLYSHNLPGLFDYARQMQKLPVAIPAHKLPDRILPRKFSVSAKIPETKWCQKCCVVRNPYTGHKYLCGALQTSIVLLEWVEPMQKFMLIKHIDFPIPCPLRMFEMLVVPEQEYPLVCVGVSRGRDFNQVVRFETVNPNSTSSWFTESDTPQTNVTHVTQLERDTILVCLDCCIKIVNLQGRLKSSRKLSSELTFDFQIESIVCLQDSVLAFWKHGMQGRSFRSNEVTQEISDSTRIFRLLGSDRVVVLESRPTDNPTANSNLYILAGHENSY

[8] = target: NT-3 growth factor receptor (Homo sapiens, UniProt Q16288); assay: Selectivity interaction (ProQinase) EUB0000171b NTRK3
Sequence of NT-3 growth factor receptor (Q16288 32-839 limits assumed): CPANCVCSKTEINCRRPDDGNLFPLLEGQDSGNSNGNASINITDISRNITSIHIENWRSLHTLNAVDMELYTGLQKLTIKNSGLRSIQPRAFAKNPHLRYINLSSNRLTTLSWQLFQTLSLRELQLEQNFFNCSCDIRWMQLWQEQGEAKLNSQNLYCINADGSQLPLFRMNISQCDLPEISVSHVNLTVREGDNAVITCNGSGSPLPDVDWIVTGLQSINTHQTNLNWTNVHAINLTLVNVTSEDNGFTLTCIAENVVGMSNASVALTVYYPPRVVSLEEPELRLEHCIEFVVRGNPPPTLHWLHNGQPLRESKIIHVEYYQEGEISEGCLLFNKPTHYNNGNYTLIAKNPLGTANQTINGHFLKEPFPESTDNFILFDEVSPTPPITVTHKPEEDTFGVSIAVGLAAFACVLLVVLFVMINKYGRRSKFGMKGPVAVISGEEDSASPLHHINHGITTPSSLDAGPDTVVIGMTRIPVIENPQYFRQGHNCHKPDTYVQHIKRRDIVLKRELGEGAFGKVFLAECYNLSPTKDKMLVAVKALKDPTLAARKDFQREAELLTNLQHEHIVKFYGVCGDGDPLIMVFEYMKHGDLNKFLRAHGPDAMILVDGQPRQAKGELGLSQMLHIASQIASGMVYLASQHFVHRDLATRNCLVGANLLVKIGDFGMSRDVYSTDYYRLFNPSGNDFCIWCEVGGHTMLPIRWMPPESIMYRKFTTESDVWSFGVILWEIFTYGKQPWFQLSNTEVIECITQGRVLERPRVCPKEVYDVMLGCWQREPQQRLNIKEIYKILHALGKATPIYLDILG

Sequence of WD repeat-containing protein 48 (Homo sapiens) (Q8TAF3 whole entry, the tested form may be a part): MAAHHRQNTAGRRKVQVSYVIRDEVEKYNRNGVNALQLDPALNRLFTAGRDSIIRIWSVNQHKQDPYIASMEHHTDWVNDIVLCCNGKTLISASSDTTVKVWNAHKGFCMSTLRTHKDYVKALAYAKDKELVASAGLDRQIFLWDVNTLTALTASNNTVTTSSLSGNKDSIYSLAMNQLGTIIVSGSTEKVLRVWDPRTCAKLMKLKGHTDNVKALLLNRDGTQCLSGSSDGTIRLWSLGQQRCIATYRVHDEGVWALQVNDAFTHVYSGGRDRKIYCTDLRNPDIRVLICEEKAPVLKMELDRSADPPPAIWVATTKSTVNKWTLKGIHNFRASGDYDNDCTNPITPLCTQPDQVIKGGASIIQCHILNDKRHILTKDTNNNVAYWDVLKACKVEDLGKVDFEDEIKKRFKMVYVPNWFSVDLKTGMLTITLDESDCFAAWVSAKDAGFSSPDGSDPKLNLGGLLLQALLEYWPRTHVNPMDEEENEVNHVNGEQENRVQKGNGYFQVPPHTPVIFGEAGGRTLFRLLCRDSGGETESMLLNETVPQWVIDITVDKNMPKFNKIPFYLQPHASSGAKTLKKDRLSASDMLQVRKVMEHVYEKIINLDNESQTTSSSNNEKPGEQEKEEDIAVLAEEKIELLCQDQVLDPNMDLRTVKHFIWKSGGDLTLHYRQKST
Sequence of Histone acetyltransferase p300 (Homo sapiens) (Q09472 whole entry, the tested form may be a part): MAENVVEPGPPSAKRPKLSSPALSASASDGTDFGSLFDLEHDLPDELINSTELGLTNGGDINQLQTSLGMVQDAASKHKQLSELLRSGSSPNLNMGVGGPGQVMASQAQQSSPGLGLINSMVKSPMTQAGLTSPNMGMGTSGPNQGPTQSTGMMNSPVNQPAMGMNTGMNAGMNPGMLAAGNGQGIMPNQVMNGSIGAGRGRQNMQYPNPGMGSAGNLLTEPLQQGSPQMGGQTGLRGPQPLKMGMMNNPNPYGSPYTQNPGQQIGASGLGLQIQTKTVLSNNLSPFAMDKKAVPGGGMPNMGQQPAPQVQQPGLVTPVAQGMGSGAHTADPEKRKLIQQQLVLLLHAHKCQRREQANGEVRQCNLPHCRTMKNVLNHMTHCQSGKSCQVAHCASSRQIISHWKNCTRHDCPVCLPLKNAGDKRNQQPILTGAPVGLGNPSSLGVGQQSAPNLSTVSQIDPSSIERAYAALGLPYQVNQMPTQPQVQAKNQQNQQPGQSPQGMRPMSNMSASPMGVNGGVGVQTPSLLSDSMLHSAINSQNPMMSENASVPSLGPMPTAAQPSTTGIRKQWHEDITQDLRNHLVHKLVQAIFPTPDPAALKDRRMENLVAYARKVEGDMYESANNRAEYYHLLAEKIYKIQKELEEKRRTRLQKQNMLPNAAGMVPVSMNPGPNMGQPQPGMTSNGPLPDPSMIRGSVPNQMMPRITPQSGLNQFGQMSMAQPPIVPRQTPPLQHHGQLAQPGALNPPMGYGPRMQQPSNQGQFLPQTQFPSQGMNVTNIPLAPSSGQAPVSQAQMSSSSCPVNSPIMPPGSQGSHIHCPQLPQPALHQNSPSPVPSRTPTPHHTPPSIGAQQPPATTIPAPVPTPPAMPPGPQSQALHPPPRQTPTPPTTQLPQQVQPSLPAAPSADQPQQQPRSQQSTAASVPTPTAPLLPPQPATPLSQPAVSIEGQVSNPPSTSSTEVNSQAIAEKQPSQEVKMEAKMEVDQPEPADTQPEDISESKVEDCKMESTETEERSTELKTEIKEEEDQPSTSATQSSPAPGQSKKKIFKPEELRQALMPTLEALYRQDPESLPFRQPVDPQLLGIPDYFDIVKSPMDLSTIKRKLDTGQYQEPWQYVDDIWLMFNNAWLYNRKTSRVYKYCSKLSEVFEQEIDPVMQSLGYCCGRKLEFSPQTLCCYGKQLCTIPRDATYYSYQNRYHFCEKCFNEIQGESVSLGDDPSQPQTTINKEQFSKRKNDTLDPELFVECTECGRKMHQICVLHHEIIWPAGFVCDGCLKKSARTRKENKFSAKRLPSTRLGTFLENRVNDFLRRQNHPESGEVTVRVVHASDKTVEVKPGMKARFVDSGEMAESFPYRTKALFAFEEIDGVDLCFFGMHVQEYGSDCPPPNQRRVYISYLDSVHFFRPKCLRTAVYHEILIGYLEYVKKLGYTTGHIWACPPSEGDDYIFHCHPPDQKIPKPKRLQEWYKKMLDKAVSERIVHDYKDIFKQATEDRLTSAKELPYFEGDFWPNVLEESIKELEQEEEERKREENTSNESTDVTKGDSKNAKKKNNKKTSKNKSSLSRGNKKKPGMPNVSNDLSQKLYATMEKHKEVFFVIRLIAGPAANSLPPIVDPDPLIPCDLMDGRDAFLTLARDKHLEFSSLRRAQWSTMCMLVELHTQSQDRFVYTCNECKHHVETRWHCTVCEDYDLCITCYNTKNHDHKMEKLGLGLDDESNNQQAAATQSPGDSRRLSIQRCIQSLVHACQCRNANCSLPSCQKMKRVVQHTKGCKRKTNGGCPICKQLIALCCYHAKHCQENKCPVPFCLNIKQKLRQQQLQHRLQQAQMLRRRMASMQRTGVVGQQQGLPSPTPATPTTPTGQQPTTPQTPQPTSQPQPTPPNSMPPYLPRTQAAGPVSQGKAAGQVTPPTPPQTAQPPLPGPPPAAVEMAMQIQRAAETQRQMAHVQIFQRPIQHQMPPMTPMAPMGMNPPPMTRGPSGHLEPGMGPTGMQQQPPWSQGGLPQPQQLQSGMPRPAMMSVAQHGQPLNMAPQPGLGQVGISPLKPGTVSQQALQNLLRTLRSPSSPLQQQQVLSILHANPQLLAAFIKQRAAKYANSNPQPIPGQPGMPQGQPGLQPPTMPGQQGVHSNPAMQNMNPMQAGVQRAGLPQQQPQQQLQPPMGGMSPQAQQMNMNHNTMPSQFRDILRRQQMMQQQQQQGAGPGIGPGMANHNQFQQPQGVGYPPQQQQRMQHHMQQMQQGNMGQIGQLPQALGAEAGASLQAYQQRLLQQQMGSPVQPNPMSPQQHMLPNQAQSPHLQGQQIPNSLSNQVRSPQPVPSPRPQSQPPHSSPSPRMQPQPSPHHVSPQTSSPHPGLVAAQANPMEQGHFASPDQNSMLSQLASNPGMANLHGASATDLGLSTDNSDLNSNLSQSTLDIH
Sequence of Proto-oncogene tyrosine-protein kinase Src (P12931 2-536 limits assumed): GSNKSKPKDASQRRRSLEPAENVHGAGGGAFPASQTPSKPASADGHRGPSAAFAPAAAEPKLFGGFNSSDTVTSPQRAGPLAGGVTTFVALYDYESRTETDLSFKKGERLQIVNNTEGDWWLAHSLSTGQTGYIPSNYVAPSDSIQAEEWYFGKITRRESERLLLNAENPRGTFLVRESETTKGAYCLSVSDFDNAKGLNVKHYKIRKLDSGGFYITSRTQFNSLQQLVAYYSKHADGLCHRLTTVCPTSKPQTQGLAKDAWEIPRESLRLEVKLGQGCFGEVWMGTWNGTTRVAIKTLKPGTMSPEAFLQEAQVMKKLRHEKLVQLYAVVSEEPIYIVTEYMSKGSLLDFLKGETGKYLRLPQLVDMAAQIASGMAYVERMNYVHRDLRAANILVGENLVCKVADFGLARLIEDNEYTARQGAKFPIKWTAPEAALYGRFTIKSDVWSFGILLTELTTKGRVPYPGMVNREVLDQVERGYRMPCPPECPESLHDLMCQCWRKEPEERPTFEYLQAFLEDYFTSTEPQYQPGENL

## COc1cc(Nc2nc(C)cc(-c3cnn4nc(OC)ccc34)n2)cc(C(F)(F)F)c1
[1]
  % of control: 86%

## CNCCN1CCC(c2cc(CN(C)C(=O)c3cccc(Oc4ccccc4)c3)ccn2)CC1
[2]
  % of growth rate: -31%

## Cc1cc(CN)cc(C)c1-c1ncn(C)c1-c1cncn1C
[3]
  dTM: -1.45 K
[4]
  dTagg: 0.1 K

## CN(C)C/C=C/C(=O)Nc1ccc(C(=O)N2CCCC(Nc3ncc(Cl)c(-c4c[nH]c5ccccc45)n3)C2)cc1 (centres undefined)
[5]
  % of control: 90%

## Cc1cc([C@@H](C)Nc2ccccc2C(=O)O)c2nc(N3CCOCC3)cc(=O)n2c1 [AZD-6482]
[6]
  % of control: 85%

## Cn1cc(-n2cnc3c(NCc4nc5cc(Cl)c(Cl)cc5[nH]4)nc(N4CCOCC4)nc32)cn1
[7]
  % of inhibition: -14.8%

## C=CC(=O)Nc1cccc(C(=O)Nc2ccc(Nc3cc(-c4[nH]c(SC)nc4C)ccn3)cc2)c1
[8]; at 1 µM
  % of control: 99%
[8]; at 5 µM
  % of control: 79%
